Activity calls are given as the source filed them. The rule behind the calls is not given here.
Experiments:
Rattus norvegicus [1] = assay: Compound was evaluated for its analgesic activity by Rat-tail-flick test after subcutaneous administration; format: functional; settings: for ED50: sc
Mus musculus [2] = assay: Analgesic activity in the mouse acetic acid writhing test following s.c. administration.; format: functional; settings: sc
Rattus norvegicus [3] = assay: Compound was evaluated for its analgesic activity by Rat-tail-flick test after subcutaneous administration at a dose 10 mg/kg; Ia= inactive; format: functional, organism-based; set-up: dose 10 mg/kg
Mus musculus [4] = assay: Compound was evaluated for its analgesic activity by mouse acetic acid writhing test after subcutaneous administration at a dose 10 mg/kg; Ia= inactive; format: functional, organism-based; set-up: dose 10 mg/kg
Mus musculus [5] = assay: Compound was evaluated for its analgesic activity by mouse acetic acid writhing test after subcutaneous administration at a dose 10 mg/kg; format: functional; settings: sc

Compound | ED50 (Rattus norvegicus [1]) [mg/kg] | ED50 (Mus musculus [2]) [mg/kg] | further results
CCCCC(C)(O)C1=CCC23CCN(C)C(Cc4ccc(OC)cc42)[C@H]3C1 (stereo partly drawn) | 3.2 | 0.0125 | –
COc1ccc2c3c1OC1C=C(C(C)=O)CC4C(C2)N(C)CCC314 (stereo not drawn) | – | – | ED50 (Rattus norvegicus [3]): inactive; ED50 (Mus musculus [4]): inactive
CN1CC[C@]23c4c5ccc(O)c4O[C@H]2[C@@H](O)C=C[C@H]3[C@H]1C5.CN1CC[C@]23c4c5ccc(O)c4O[C@H]2[C@@H](O)C=C[C@H]3[C@H]1C5.O=S(=O)(O)O | 7.32 | 0.79 | –
CC(=O)C1=CCC23CCN(C)C(Cc4ccc(O)cc42)C3C1 (stereo not drawn) | > 10 | > 10 | –
CCCCC(C)(O)C1=CCC23CCN(C)C(Cc4ccc(OC)cc42)C3C1 (stereo not drawn) | – | – | ED50 (Rattus norvegicus [3]): inactive; ED50 (Mus musculus [4]): inactive
CCCCC(=O)C1=CC2Oc3c(OC)ccc4c3C23CCN(C)C(C4)C3C1.Cl (stereo not drawn) | > 10 | – | ED50 (Mus musculus [4]): inactive
COc1ccc2c(c1)C13CCN(CC4CC4)C(C2)[C@H]1CCC(=O)C3 (stereo partly drawn) | – | > 10 | AD50 (Rattus norvegicus [1]): 1.3 mg/kg
COc1ccc2c(c1)C13CC=C(C=O)C[C@@H]1C(C2)N(C)CC3 (stereo partly drawn) [listing 1 of 2 here] | – | 0.28 | –
CCCCS/C=C1\CC2C3Cc4ccc(OC)c5c4C2(CCN3C)C(O5)C1=O (stereo not drawn) | > 10 | > 10 | –
COc1ccc2c3c1O[C@H]1C(=O)CC[C@@]4(O)[C@@H](C2)N(C)CC[C@]314.Cl [OXYCODONE HYDROCHLORIDE] | – | 0.3 | –
CCCCC(O)C1=CCC23CCN(C)C(Cc4ccc(OC)cc42)[C@@H]3C1 (stereo partly drawn) | – | – | ED50 (Mus musculus [4]): inactive
CCCCC(O)C1=CCC23CCN(CC4CC4)C(Cc4ccc(OC)cc42)[C@H]3C1 (stereo partly drawn) | – | 0.21 | –
COc1ccc2c(c1)C13CC=C(C=O)C[C@@H]1C(C2)N(C)CC3 (stereo partly drawn) [listing 2 of 2 here] | – | – | ED50 (Rattus norvegicus [3]): inactive
CCCCC(=O)C1=CCC23CCN(C)C(Cc4ccc(OC)cc42)[C@H]3C1.Cl (stereo partly drawn) | – | 0.82 | –
COc1ccc2c(c1)C13CCN(C)C(C2)C1CCC(=O)C3 (stereo not drawn) | > 20 | – | –
COc1ccc2c3c1O[C@H]1C(=O)CC[C@H]4[C@@H](C2)N(C)CC[C@]314.O=C(O)C(O)C(O)C(=O)O | – | 1.06 | –

Compound | ED50 (Rattus norvegicus [1]) [mg/kg] | ED50 (Mus musculus [2]) [mg/kg] | further results
CCCC[C@H](O)C1=CCC23CCN(C)C(Cc4ccc(OC)cc42)[C@H]3C1 (stereo partly drawn) | 0.3 | 0.0058 | –
COc1ccc2c3c1OC1C=C(C=O)CC4(O)C(C2)N(C)CCC314 (stereo not drawn) | – | 3.6 | –
CCCC[C@@H](O)C1=CCC23CCN(C)C(Cc4ccc(OC)cc42)[C@H]3C1 (stereo partly drawn) | 1.8 | 0.0062 | –
CCCCNCC1=CC2Oc3c(OC)ccc4c3C23CCN(C)C(C4)C3C1 (stereo not drawn) | – | – | ED50 (Mus musculus [4]): inactive
COc1ccc2c3c1OC1C=C([C@H](O)CCCc4ccccc4)CC4C(C2)N(C)CCC314 (stereo partly drawn) | – | 0.72 | –
CN1CC[C@]23c4c5ccc(O)c4O[C@H]2C(=O)CC[C@H]3[C@H]1C5.Cl [HYDROMORPHONE HYDROCHLORIDE] | – | 0.08 | –
COc1ccc2c3c1OC1C=C([C@@H](O)CCCc4ccccc4)CC4C(C2)N(C)CCC314 (stereo partly drawn) | – | 1.6 | –
CCCCC(=O)C1=CCC23CCN(C)C(Cc4ccc(O)cc42)[C@H]3C1 (stereo partly drawn) | 0.0135 | 0.046 | –
COc1ccc2c(c1)C13CC=C(C=O)C[C@@H]1C(C2)N(C)CC3.Cl (stereo partly drawn) | – | – | ED50 (Mus musculus [5]): 4.55 mg/kg
COc1ccc2c3c1OC1C(=O)/C(=C/N(C)C)CC4C(C2)N(C)CCC314 (stereo not drawn) | – | – | ED50 (Rattus norvegicus [3]): inactive; ED50 (Mus musculus [4]): inactive
COc1ccc2c3c1OC1C=C(C(C)O)CC4C(C2)N(C)CCC314 (stereo not drawn) | – | – | ED50 (Rattus norvegicus [3]): inactive; ED50 (Mus musculus [4]): inactive
COc1ccc2c(c1)C13CCN(C)C(C2)[C@H]1CCC(=O)C3 (stereo partly drawn) | 0.66 | 0.49 | –
CCCCC(O)C1=CC2Oc3c(OC)ccc4c3C23CCN(C)C(C4)C3(O)C1.Cl (stereo not drawn) | – | 9.8 | –
CCCCC(C)(O)C1=CCC23CCN(C)C(Cc4ccc(O)cc42)C3C1 (stereo not drawn) | – | – | ED50 (Mus musculus [4]): inactive
CCCCC(O)C1=CC2Oc3c(OC)ccc4c3C23CCN(C)C(C4)C3C1 (stereo not drawn) | – | 3.13 | ED50 (Rattus norvegicus [3]): inactive
COc1ccc2c3c1OC1C=C(C=O)CC4C(C2)N(C)CCC314 (stereo not drawn) | – | 1.45 | ED50 (Rattus norvegicus [3]): inactive

Reference: ChEMBL document CHEMBL1122790, “Novel opiates and antagonists. 6. 7-Alkyl-6,7-didehydromorphinans” (1984)
